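GI50: concentration for 50% inhibition of growth. TGI: concentration producing complete growth inhibition.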
Legend:
Assay in all cases: NCI tumour cell line growth inhibition, 384-well format
786-0 renal = test system: 786-0 renal
A498 renal = test system: A498 renal
A549 NSCLC = test system: A549 NSCLC
ACHN renal = test system: ACHN renal
BT-549 breast = test system: BT-549 breast
CAKI-1 renal = test system: CAKI-1 renal
CCRF-CEM leukemia = test system: CCRF-CEM leukemia
COLO 205 colon = test system: COLO 205 colon
DU-145 prostate = test system: DU-145 prostate
EKVX NSCLC = test system: EKVX NSCLC
HCC-2998 colon = test system: HCC-2998 colon
HCT-116 colon = test system: HCT-116 colon
HCT-15 colon = test system: HCT-15 colon
HL-60(TB) leukemia = test system: HL-60(TB) leukemia
HOP-62 NSCLC = test system: HOP-62 NSCLC
HOP-92 NSCLC = test system: HOP-92 NSCLC
HS 578T breast = test system: HS 578T breast
HT29 colon = test system: HT29 colon
IGROV1 ovarian = test system: IGROV1 ovarian
K-562 leukemia = test system: K-562 leukemia
KM12 colon = test system: KM12 colon
LOX IMVI melanoma = test system: LOX IMVI melanoma
M14 melanoma = test system: M14 melanoma
MALME-3M melanoma = test system: MALME-3M melanoma
MCF7 breast = test system: MCF7 breast
MDA-MB-231 breast = test system: MDA-MB-231 breast
MDA-MB-435 melanoma = test system: MDA-MB-435 melanoma
MDA-MB-468 breast = test system: MDA-MB-468 breast
MOLT-4 leukemia = test system: MOLT-4 leukemia
NCI-H226 lung = test system: NCI-H226 lung
NCI-H23 lung = test system: NCI-H23 lung
NCI-H322M lung = test system: NCI-H322M lung
NCI-H460 NSCLC = test system: NCI-H460 NSCLC
NCI-H522 lung = test system: NCI-H522 lung
NCI/ADR-RES ovarian = test system: NCI/ADR-RES ovarian
OVCAR-3 ovarian = test system: OVCAR-3 ovarian
OVCAR-4 ovarian = test system: OVCAR-4 ovarian
OVCAR-8 ovarian = test system: OVCAR-8 ovarian
PC-3 prostate = test system: PC-3 prostate
RPMI-8226 leukemia = test system: RPMI-8226 leukemia
RXF 393 renal = test system: RXF 393 renal
SF-268 CNS = test system: SF-268 CNS
SF-295 CNS = test system: SF-295 CNS
SF-539 CNS = test system: SF-539 CNS
SK-MEL-28 melanoma = test system: SK-MEL-28 melanoma
SK-MEL-5 melanoma = test system: SK-MEL-5 melanoma
SK-OV-3 ovarian = test system: SK-OV-3 ovarian
SN12C renal = test system: SN12C renal
SNB-19 CNS = test system: SNB-19 CNS
SNB-75 CNS = test system: SNB-75 CNS
SR leukemia = test system: SR leukemia
SW-620 colon = test system: SW-620 colon
T-47D breast = test system: T-47D breast
TK-10 renal = test system: TK-10 renal
U251 glioblastoma = test system: U251 glioblastoma
UACC-257 melanoma = test system: UACC-257 melanoma
UACC-62 melanoma = test system: UACC-62 melanoma
UO-31 renal = test system: UO-31 renal

## Cc1nnc(C[C@@H]2C=C(c3ccc(Cl)cc3)c3ccccc3-n3c(C)nnc32)o1
786-0 renal
  GI50: 0.424 µM
  TGI: 20.8 µM
A498 renal
  GI50: 0.783 µM
  TGI: 16.3 µM
A549 NSCLC
  GI50: 0.989 µM
  TGI: 26.4 µM
ACHN renal
  GI50: 1.96 µM
  TGI: 56.8 µM
BT-549 breast
  GI50: 0.238 µM
  TGI: 10 µM
CAKI-1 renal
  GI50: 0.0908 µM
  TGI: 13.5 µM
CCRF-CEM leukemia
  GI50: 0.357 µM
  TGI: 12.5 µM
COLO 205 colon
  GI50: 0.487 µM
  TGI: 17.2 µM
DU-145 prostate
  GI50: 5.28 µM
  TGI: 43 µM
EKVX NSCLC
  GI50: 17.5 µM
  TGI: 66.8 µM
HCC-2998 colon
  GI50: 0.285 µM
  TGI: 2.46 µM
HCT-116 colon
  GI50: 0.453 µM
  TGI: 17.9 µM
HCT-15 colon
  GI50: 0.283 µM
  TGI: 10.4 µM
HL-60(TB) leukemia
  GI50: 0.0346 µM
  TGI: 0.144 µM
HOP-62 NSCLC
  GI50: 0.316 µM
  TGI: 16.2 µM
HOP-92 NSCLC
  GI50: 0.595 µM
  TGI: 45 µM
HS 578T breast
  GI50: 0.0882 µM
  TGI: 1.4 µM
HT29 colon
  GI50: 0.267 µM
  TGI: 14.5 µM
IGROV1 ovarian
  GI50: 0.631 µM
  TGI: 15.2 µM
K-562 leukemia
  GI50: 0.377 µM
  TGI: 15.4 µM
KM12 colon
  GI50: 1.69 µM
  TGI: 20.7 µM
LOX IMVI melanoma
  GI50: 0.192 µM
  TGI: 0.469 µM
M14 melanoma
  GI50: 0.935 µM
  TGI: 38.8 µM
MALME-3M melanoma
  GI50: 0.382 µM
  TGI: 19.3 µM
MCF7 breast
  GI50: 0.087 µM
  TGI: 21.4 µM
MDA-MB-231 breast
  GI50: 0.39 µM
  TGI: > 100 µM
MDA-MB-435 melanoma
  GI50: 2.13 µM
  TGI: 17.1 µM
MDA-MB-468 breast
  GI50: 1.5 µM
  TGI: 16.4 µM
MOLT-4 leukemia
  GI50: 0.321 µM
  TGI: 10.2 µM
NCI-H226 lung
  GI50: 0.294 µM
  TGI: 17.4 µM
NCI-H23 lung
  GI50: 0.545 µM
  TGI: 12.9 µM
NCI-H322M lung
  GI50: 0.492 µM
  TGI: 37.6 µM
NCI-H460 NSCLC
  GI50: 1.34 µM
  TGI: 18.7 µM
NCI-H522 lung
  GI50: 0.25 µM
  TGI: 2.95 µM
NCI/ADR-RES ovarian
  GI50: 1.49 µM
  TGI: 12.5 µM
OVCAR-3 ovarian
  GI50: 0.379 µM
  TGI: 12.9 µM
OVCAR-4 ovarian
  GI50: 0.447 µM
  TGI: 4.91 µM
OVCAR-8 ovarian
  GI50: 0.246 µM
  TGI: 3.1 µM
PC-3 prostate
  GI50: 0.996 µM
  TGI: 33.2 µM
RPMI-8226 leukemia
  GI50: 0.059 µM
  TGI: 0.351 µM
RXF 393 renal
  GI50: 2.6 µM
  TGI: 18.3 µM
SF-268 CNS
  GI50: 3.22 µM
  TGI: 24 µM
SF-295 CNS
  GI50: 4.52 µM
  TGI: 32.6 µM
SF-539 CNS
  GI50: 1.65 µM
  TGI: 24.5 µM
SK-MEL-28 melanoma
  GI50: 0.987 µM
  TGI: 36.7 µM
SK-MEL-5 melanoma
  GI50: 0.695 µM
  TGI: 17.7 µM
SK-OV-3 ovarian
  GI50: 0.393 µM
  TGI: 15.3 µM
SN12C renal
  GI50: 12.5 µM
  TGI: 41.1 µM
SNB-19 CNS
  GI50: 2.55 µM
  TGI: 31.6 µM
SNB-75 CNS
  GI50: 0.965 µM
  TGI: > 100 µM
SR leukemia
  GI50: 0.0585 µM
  TGI: 0.371 µM
SW-620 colon
  GI50: 10.4 µM
  TGI: 22.7 µM
T-47D breast
  GI50: 4.96 µM
  TGI: 57.9 µM
TK-10 renal
  GI50: 0.29 µM
  TGI: 13.4 µM
U251 glioblastoma
  GI50: 3.89 µM
  TGI: 25 µM
UACC-257 melanoma
  GI50: 7.05 µM
  TGI: 27.3 µM
UACC-62 melanoma
  GI50: 0.076 µM
  TGI: 12.2 µM
UO-31 renal
  GI50: 0.676 µM
  TGI: > 100 µM
